Here are results for 13 molecules from patent publication US5430031A, “Serotoninergic ergoline derivatives” (Farmitalia Carlo Erba S.r.l., priority 1992, dated 1995).

As a reminder, the ED50 is the midpoint of the dose-response relation. Higher therefore signals weaker potency.

Assay [1] has as its target T1, serotonin 1A (5-HT1A) receptor (Rattus norvegicus, UniProt P19327).
T1 construct: Freezed hippocampus dissected out from rats were homogenized; from tissue; host or cells: rat hippocampus, crude synaptosome membranes
T1 sequence (P19327 1-422): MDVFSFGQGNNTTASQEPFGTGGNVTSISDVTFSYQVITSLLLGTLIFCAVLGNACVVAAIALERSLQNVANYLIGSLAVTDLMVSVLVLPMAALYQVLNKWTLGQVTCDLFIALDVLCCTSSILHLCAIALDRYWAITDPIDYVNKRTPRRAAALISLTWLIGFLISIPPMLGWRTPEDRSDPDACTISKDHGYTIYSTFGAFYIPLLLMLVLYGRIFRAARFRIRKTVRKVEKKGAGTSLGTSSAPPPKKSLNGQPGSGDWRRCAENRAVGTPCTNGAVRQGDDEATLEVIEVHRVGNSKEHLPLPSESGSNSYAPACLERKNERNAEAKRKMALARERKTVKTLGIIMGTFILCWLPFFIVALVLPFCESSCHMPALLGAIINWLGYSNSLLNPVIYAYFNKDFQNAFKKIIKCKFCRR
The assay can be described thus: 5-HT1A receptor affinity, 3H-8-OH-DPAT binding test (Experiment 1). As to the method: Experiment 1: affinity for serotonin 1A (5-HT1A) receptor [^3 H-8-Hydroxy-2-dipropylaminotetralin (^3 H-8-OH-DPAT)binding test]
After completion of reaction, the suspension was centrifuged at 40,000×g for 20 minutes at 0° C.
Then to the mixture was added 5 ml of ice-cold 50 mM Tris-CHI buffer (pH 7.4) rapidly vacuum-filtered through Whatman® GF/B filters and was washed twice with 5 ml of the same buffer. The radioactivity of the residue remaining on the filters was measured by liquid scintillation counter. Nonspecific binding was determined under the presence of 10^-5 M serotonin (5-HT).

The target of assay [2] is T2, dopamine 2 (D2) receptor (Rattus norvegicus, UniProt P61169).
T2 construct: Freezed corpus striatum dissected out from rats were homogenized; from tissue; host or cells: rat corpus striatum, crude synaptosome membranes
T2 sequence (P61169 whole entry): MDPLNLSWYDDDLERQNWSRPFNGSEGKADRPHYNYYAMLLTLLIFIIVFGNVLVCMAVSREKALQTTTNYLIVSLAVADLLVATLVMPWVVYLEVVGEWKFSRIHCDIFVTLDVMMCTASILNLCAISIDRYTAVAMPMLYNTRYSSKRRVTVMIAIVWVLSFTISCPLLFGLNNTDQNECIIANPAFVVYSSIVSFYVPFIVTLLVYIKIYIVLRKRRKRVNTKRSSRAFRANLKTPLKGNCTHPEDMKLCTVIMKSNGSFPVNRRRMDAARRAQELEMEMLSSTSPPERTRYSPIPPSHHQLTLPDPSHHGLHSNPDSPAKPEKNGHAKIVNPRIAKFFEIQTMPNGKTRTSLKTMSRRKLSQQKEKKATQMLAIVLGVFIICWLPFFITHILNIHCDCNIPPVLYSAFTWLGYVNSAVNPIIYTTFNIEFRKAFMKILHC
Nature of the assay: D2 receptor affinity, 3H-Spiperone binding test (Experiment 3). The following applies: 3H-Spiperone 0.2 nM, corpus striatum, 37° C., 20 minutes; read-out: RECEPTOR BINDING I-C50 D2. As to the method:
Experiment 3: affinity for dopamine 2 (D2)receptor (^3 H-Spiperone binding test.)
The resulting pellet was homogenized in 150 volumes of 50 mM Tris-HCl buffer (PH 7.1) containing 120 mM potassium chloride, 2 mM calcium chloride, 1 mM magnesium chloride, 0,1% ascorbic acid and 10 μM pargyline. The suspension was incubated at 37° C. for 10 minutes and then provided as synaptosome membranes solution for the next assays.
To the aliquots (900μ) of synaptosome membranes solution were added 50 μl of ^3 H-Spiperone solution at the terminal concentration of 0.2 nM and 50 μl of test compound solution or 50 μl of its medium, and incubated at 37° C. for 20 minutes. After completion of the reaction, the mixture was rapidly vacuum-filtered through Whatman® GF/B filters. The filters were washed three times with 5 ml of the above buffer, and then the radioactivity of the residue remaining on the filters was measured by liquid scintillation counter.

The target in assay [3] is serotonin 2 (5-HT2) receptor (Rattus norvegicus, UniProt P14842). The assay can be described thus: 5-HT2 receptor affinity, 3H-Ketanserin binding test (Experiment 2).
serotonin 2 (5-HT2) receptor, sequence (P14842 whole entry): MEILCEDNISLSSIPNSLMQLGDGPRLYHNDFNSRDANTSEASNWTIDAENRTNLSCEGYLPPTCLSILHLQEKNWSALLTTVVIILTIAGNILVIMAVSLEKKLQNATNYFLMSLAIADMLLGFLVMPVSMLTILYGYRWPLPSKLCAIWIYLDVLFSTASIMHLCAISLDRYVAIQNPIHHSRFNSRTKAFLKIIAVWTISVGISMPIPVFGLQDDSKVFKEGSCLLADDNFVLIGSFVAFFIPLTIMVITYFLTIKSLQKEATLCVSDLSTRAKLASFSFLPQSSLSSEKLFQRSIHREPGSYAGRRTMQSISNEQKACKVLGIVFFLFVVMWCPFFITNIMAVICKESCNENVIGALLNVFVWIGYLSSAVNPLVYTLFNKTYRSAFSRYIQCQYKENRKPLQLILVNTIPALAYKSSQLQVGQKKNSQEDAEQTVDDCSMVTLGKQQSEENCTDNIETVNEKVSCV
Protocol: Experiment 2: affinity for serotonin 2(5-HT2)receptor (^3 H-Ketanserin binding test).
The suspension was centrifuged at 40,000×g for 20 minutes at 0° C. again. The resulting pellet was homogenized in 100 volumes of the above buffer and provided as synaptosome membranes solution for the next assay.
To the aliquots (900μ) of synaptosome membranes solution were added 50 μl solution of ^3 H-Ketanserin solution at the terminal concentration of 0.2 mM and 50 μl of test compound or its medium, and incubated at 37° C. for 20 minutes. After completion of the reaction, the mixture was rapidly vacuum-filtered through Whatman® GF/B filters. The filters were washed three times with 5 ml of the above buffer, and then the radioactivity of the residue remaining on the filters was measured by liquid scintillation counter. Non specific binding was determined under the presence of 10 μM of mianserin.
In assay [4] the test system is group-caged mice. The assay can be described thus: stress-induced hyperthermia, screening model of anxiety. The following applies: Mouse, ip. Format: in vivo. An excerpt: This procedure is based upon the antagonism of an increase in rectal temperature observed in group-caged mice as they are being removed from their cohorts.

Like-named read-outs stand apart in the source and are kept apart here.

On to `COC(=O)[C@@H]1C[C@@H]2c3cc(C(C)(C)C)cc4[nH]cc(c34)C[C@H]2N(C)C1` [Example 2, 6-Methyl-8β-methoxycarbonyl-13-t-butyl-ergoline], for which the values for the IC50 in assay [1], in assay [2] and in assay [3] were 10 nM, 2770 nM and 1870 nM, respectively.

Turning to `COC(=O)C1CC2c3cc(C(C)(C)C)cc4[nH]c(SC)c(c34)CC2N(C)C1` (stereo not drawn) [Example 1, 2-Thiomethyl-6-methyl-8β-methoxycarbonyl (13,14)-t-butyl-ergoline], the IC50 in assay [1] (read-out: RECEPTOR BINDING I-C50 5-HT1A, 3H-8-OH-DPAT 0.2 nM, rat hippocampus, 37° C., 10 minutes) was found to be 30 nM; in assay [2], 5200 nM; in assay [3] (read-out: RECEPTOR BINDING I-C50 5-HT2, 3H-Ketanserin 0.2 mM (so in the source), rat cerebral cortex, 37° C., 20 minutes), 6700 nM.

In the case of `Cc1nc(C(=O)NCC2CC3c4cc(C(C)(C)C)cc5[nH]cc(c45)CC3N(C)C2)cs1` (stereo not drawn) [Example 17, 6-Methyl-8β-(2-methyl-4-thiazoyl)aminomethyl-13-t-butyl-ergoline], the ED50 in assay [4] amounted to 0.06 mg/kg.

For the molecule `CCOC(=O)NC[C@@H]1C[C@@H]2c3cc(C(C)(C)C)cc4[nH]cc(c34)C[C@H]2N(C)C1` [Example 11, 6-Methyl-8β-ethoxycarbonylaminomethyl-13-t-butyl-ergoline], the IC50 in assay [1] worked out at 50 nM; in assay [2], 3100 nM; in assay [3], 3480 nM. In assay [4], this molecule registered an ED50 of 0.06 mg/kg.

On to `CN1C[C@H](CNC(=O)c2ccncc2)C[C@@H]2c3cc(C(C)(C)C)cc4[nH]cc(c34)C[C@H]21` [Example 8, 6-Methyl-8β-isonicotinoylaminomethyl-13-t-butyl-ergoline], for which the IC50 turned out to be 80 nM in assay [1], 2900 nM in assay [2] and 2100 nM in assay [3].

On to `CN1C[C@H](CNC(=O)c2cncc(Br)c2)C[C@@H]2c3cc(C(C)(C)C)cc4[nH]cc(c34)C[C@H]21` [Example 9, 6-methyl-8β-(5-bromo-nicotinoyl)aminomethyl-13-t-butyl-ergoline], for which the IC50 was 10 nM in assay [1], 2100 nM in assay [2] and 1100 nM in assay [3]. Also, the ED50 in assay [4] was 0.03 mg/kg.

For `CN1C[C@H](CNC(=O)C(C)(C)C)C[C@@H]2c3cc(C(C)(C)C)cc4[nH]cc(c34)C[C@H]21` [Example 7, 6-Methyl-8β-pivaloylaminomethyl-13-t-butyl-ergoline], the IC50 is 10 nM in assay [1], 5100 nM in assay [2] and 1200 nM in assay [3]. For the same molecule, the ED50 in assay [4] is 0.06 mg/kg.

On to `CN1C[C@H](CNC(=O)C2CCCCC2)C[C@@H]2c3cc(C(C)(C)C)cc4[nH]cc(c34)C[C@H]21` [Example 13, 6-Methyl-8β-cyclohexylcarbonylaminomethyl-13-t-butyl-ergoline], for which the values for the IC50 in assay [1], in assay [2] and in assay [3] were 5 nM, 1700 nM and 1100 nM, respectively.

Take `CN1C[C@H](CO)C[C@@H]2c3cc(C(C)(C)C)cc4[nH]cc(c34)C[C@H]21` [Example 3, 6-Methyl-8β-hydroxymethyl-13-t-butyl-ergoline]: the IC50 was found to be 10 nM in assay [1], 4450 nM in assay [2] and 1100 nM in assay [3].

Molecule `Cc1cc(C(=O)NCC2CC3c4cc(C(C)(C)C)cc5[nH]cc(c45)CC3N(C)C2)nn1C` (stereo not drawn) [Example 16, 6-Methyl-8β-(1,5-dimethyl-3-pyrazoyl)aminomethyl-13-t-butyl-ergoline] showed an ED50 in assay [4] of 0.06 mg/kg.

Take `CN1CC(CNC(=O)Cc2ccccc2)CC2c3cc(C(C)(C)C)cc4[nH]cc(c34)CC21` (stereo not drawn) [Example 6, 6-Methyl-8β.phenylacetylaminomethyl-13-t-butyl-ergoline]: the IC50 turned out to be 8 nM in assay [1], 1250 nM in assay [2] and 700 nM in assay [3]. The same molecule came in with a 50% effective dose (ED50) in assay [4] of 0.06 mg/kg.

`CN1C[C@H](CNC(=O)Nc2ccccc2)C[C@@H]2c3cc(C(C)(C)C)cc4[nH]cc(c34)C[C@H]21` [Example 12, 6-Methyl-8β-phenylaminocarbonylaminomethyl-13-t-butyl-ergoline]: the IC50 in assay [1] amounted to 10 nM; in assay [2] it was 2100 nM; in assay [3] it was 6150 nM.

On to `CN1C[C@H](CN)C[C@@H]2c3cc(C(C)(C)C)cc4[nH]cc(c34)C[C@H]21` [Example 4, 6-Methyl-8β-aminomethyl-13-t-butyl-ergoline], for which the IC50 is 10 nM in assay [1], 3330 nM in assay [2] and 700 nM in assay [3].
